The experiment has as its target T1, human TNIK (N-terminal segment, TNIK_N) (Homo sapiens, UniProt Q9UKE5).
T1 construct: made in house; host or cells: Sf21 insect cells (baculovirus)
The experiment is described as follows: TNIK kinase assay (mobility shift). The format is biochemical. As to conditions: 25 μM ATP, 1 h at room temperature. From the text:
A cDNA encoding the N-terminal segment (TNIK_N, residues 1-314) containing the kinase domain of human TNIK (NM_015028.1) was amplified from cDNA mixture synthesized from human tissue (Biochain) by PCR using the following primers: 5′-[…]-3′ ([SEQ ID NO:1]: forward primer, the underlined nucleotides indicates the location of a EheI site); 5′-[…]-3′ ([SEQ ID NO:2]: reverse primer, the underlined nucleotides indicates the location of a NotI site). The cDNA was subcloned into baculovirus transfer vector pFastBac_GSTb that includes protease cleavage site and glutathione S-transferase purification tag (GST-tag). The plasmid was purified and the insertion of the pFastBac_GSTb-TNIK_N was confirmed by DNA sequencing. Then E. coli DH10Bac competent cells were transformed with the plasmid to prepare the recombinant bacmid according to the instructions for the Bac-to-Bac™ baculovirus expression systems (Invitrogen). The Sf9 cells were transfected with the recombinant bacmid containing pFastBac_GSTb-TNIK_N using Cellfectin Reagent (Invitrogen) in SF-900II serum free media (Invitrogen). The viral supernatant was collected from the medium 72 h after transfection. The virus was amplified three times by infecting actively growing Sf9 or Sf21 cells in Grace's insect media (Invitrogen) supplemented with 10% FCS and an antibiotic-antimycotic reagent (Invitrogen) for 72 h at 27° C. in T-flask or roller bottles. The titer of amplified TNIK_N virus was estimated at 2.36×10^8 pfu/ml by using BacPAK™ Baculovirus Rapid Titer kit (Clontech).
Log-phase Sf21 cells (2×10^6 cells/ml) in the Grace's insect media were infected with the recombinant baculovirus at MOI of 3.0 and incubated in roller bottles (250 ml media per bottle) for 72 h at 27° C., after which, the cells were collected by centrifugation, and the cell pellet washed with cold PBS and kept at −80° C. until purification. The following purification procedures were carried out at 4° C. The frozen cells were thawed on ice and lysed in lysis buffer (50 mM Tris-HCl, pH 7.5, 150 mM NaCl, 1% Nonidet P-40, 5 mM DTT, 0.5 mM EDTA, 0.5 mM EGTA) supplemented with 1 mM phenylmethansulfonylfluoride, 2 μg/ml leupeptin, 2 μg/ml aprotinin, 1 mM NaF, 100 μM sodium orthovanadate, and 1 μM cantharidin by sonication. The suspended lysate was cleared by centrifugation at 9000 g for 20 min and the supernatant was incubated for 1 h with glutathione Sepharose beads (GE Healthcare). The beads were suspended in buffer-H (50 mM Tris-HCl, pH 7.5, 1 M NaCl, 1 mM DTT, 0.5 mM EDTA, 0.5 mM EGTA and 0.05% Brij35) and washed with buffer-H followed by buffer-L (50 mM Tris-HCl, pH 7.5, 150 mM NaCl, 1 mM DTT, 0.5 mM EDTA, 0.5 mM EGTA, 0.05% Brij35) in an Econo-pack column (BIO-RAD). The bound TNIK_N was eluted with elution buffer (50 mM Tris-HCl, pH 8.0, 150 mM NaCl, 1 mM DTT, 10% glycerol, 0.5 mM EDTA, 0.5 mM EGTA and 5 mM reduced glutathione). The eluted fractions were collected and determined the protein concentration by Bradford reagent (BIO-RAD). The TNIK_N fractions were pooled and desalted using 10DG column (BIORAD) equilibrated with the storage buffer (50 mM Tris-HCl, pH 7.5, 150 mM NaCl, 1 mM DTT, 10% glycerol, 0.05% Brij35). The purified TNIK_N was characterized by electrophoresis using 4-20% polyacrylamide gels and matrix-assisted laser desorption/ionization reflection time-of-flight (MALDI-TOF) mass spectrometry on a Voyager-DE RP MALDI/TOF (Applied Biosystems). TNIK_N was confirmed by the molecular weight and MASCOT Peptide Mass Fingerprint.
The kinase assays were conducted in a 20 μl volume using 384-well plates (Greiner). The reaction mixture consists of compound or vehicle (1% DMSO), 0.08 ng/μl TNIK_N, 1 μM FITC-labeled substrate peptides, FITC-x-Lys-Tyr-Lys-Thr-Leu-Arg-Gln ([SEQ ID NO.3], x: ε-aminocaproic acid), 20 mM Hepes, pH 7.5, 0.01% Triton X-100, 5 mM MgCl2, 25 μM ATP and 2 mM DTT. As blank, TNIK_N was excluded from the reaction mixture of vehicle (1% DMSO). […]
T1 sequence (Q9UKE5 1-314): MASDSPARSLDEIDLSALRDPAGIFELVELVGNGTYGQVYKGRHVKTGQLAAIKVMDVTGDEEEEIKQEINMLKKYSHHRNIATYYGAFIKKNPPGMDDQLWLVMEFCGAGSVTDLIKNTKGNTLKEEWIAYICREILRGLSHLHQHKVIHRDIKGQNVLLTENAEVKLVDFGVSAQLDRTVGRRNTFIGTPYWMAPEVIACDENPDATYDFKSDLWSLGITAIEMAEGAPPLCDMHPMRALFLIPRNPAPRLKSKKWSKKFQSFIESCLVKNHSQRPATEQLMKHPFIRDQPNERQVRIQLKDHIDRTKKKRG
Take `Cc1cccc(C(=O)Nc2sc(Nc3ccccc3)nc2C(N)=O)c1` [Compound 2, 5-(3-methylbenzamido)-2-(phenylamino)thiazole-4-carboxamide]: the concentration for half-maximal inhibition (IC50) (commonly the concentration that gives 50% inhibition) came to 40 nM. On to `NC(=O)c1nc(Nc2ccccc2)sc1NC(=O)c1ccccc1F` [Compound 3, 5-(2-fluorobenzamido)-2-(phenylamino)thiazole-4-carboxamide], for which the IC50 was determined as 19 nM. `COc1ccc(C(=O)Nc2sc(Nc3ccccc3)nc2C(N)=O)cc1` [Compound 4, 5-(4-methoxybenzamido)-2-(phenylamino)thiazole-4-carboxamide]: the IC50 came out at 10 nM. As for `COc1cccc(C(=O)Nc2sc(Nc3ccccc3)nc2C(N)=O)c1` [Compound 5, 5-(3-methoxybenzamido)-2-(phenylamino)thiazole-4-carboxamide], the IC50 stood at 7700 nM. In the case of `NC(=O)c1nc(Nc2ccccc2)sc1NC(=O)Cc1cccs1` [Compound 6, 2-(phenylamino)-5-(2-(thiophen-2-yl)acetamido)thiazole-4-carboxamide] it was 280 nM.

Take `CC(C)CC(=O)Nc1sc(Nc2ccccc2)nc1C(N)=O` [Compound 7, 5-(3-methylbutanamido)-2-(phenylamino)thiazole-4-carboxamide]: the IC50 worked out at 180 nM. On to `NC(=O)c1nc(Nc2ccccc2)sc1NC(=O)CC1CCCC1` [Compound 8, 5-(2-cyclopentylacetamido)-2-(phenylamino)thiazole-4-carboxamide], for which the IC50 turned out to be 130 nM. With `Cc1ccc(Nc2nc(C(N)=O)c(NC(=O)c3ccccc3F)s2)cc1` [Compound 9, 2-(p-toluidino)-5-(2-fluorobenzamido)thiazole-4-carboxamide], the 50% inhibitory concentration (IC50) stood at 68 nM. `CC(=O)Nc1ccc(C(=O)Nc2sc(Nc3ccc(C)cc3)nc2C(N)=O)cc1` [Compound 10, 2-(p-toluidino)-5-(4-acetamidobenzamido)thiazole-4-carboxamide]: the IC50 came to 14 nM. Regarding `Cc1ccc(Nc2nc(C(N)=O)c(NC(=O)c3ccccc3Cl)s2)cc1` [Compound 11, 2-(p-toluidino)-5-(2-chlorobenzamido)thiazole-4-carboxamide], the concentration for half-maximal inhibition (IC50) came out at 1700 nM.

As for `Cc1ccc(Nc2nc(C(N)=O)c(NC(=O)c3cccc(Br)c3)s2)cc1` [Compound 12, 2-(p-toluidino)-5-(3-bromobenzamido)thiazole-4-carboxamide], the IC50 came out at 1700 nM.

As for `Cc1ccc(Nc2nc(C(N)=O)c(NC(=O)c3c(F)cccc3F)s2)cc1` [Compound 13, 2-(p-toluidino)-5-(2,6-difluorobenzamido)thiazole-4-carboxamide], the IC50 worked out at 180 nM. Regarding `COc1ccc(C(=O)Nc2sc(Nc3ccc(C)cc3)nc2C(N)=O)cc1OC` [Compound 14, 2-(p-toluidino)-5-(3,4-dimethoxybenzamido)thiazole-4-carboxamide], the IC50 was 57 nM. Then `Cc1ccc(Nc2nc(C(N)=O)c(NC(=O)c3cccs3)s2)cc1` [Compound 15, 2-(p-toluidino)-5-(thiophene-2-carboxamido)thiazole-4-carboxamide], with 31 nM; and `CCC(CC)C(=O)Nc1sc(Nc2ccc(C)cc2)nc1C(N)=O` [Compound 16, 2-(p-toluidino)-5-(2-ethylbutanamido)thiazole-4-carboxamide], with 4100 nM. `CCNc1nc(C(N)=O)c(NC(=O)c2cc(-c3ccccc3)nc3c(C)cccc23)s1` [Compound 17, 2-(ethylamino)-5-(8-methyl-2-phenylquinoline-4-carboxamido)thiazole-4-carboxamide]: the IC50 was determined as 3100 nM. `Cc1ccc(C(=O)Nc2sc(Nc3ccccc3)nc2C(N)=O)cc1` [Compound A1, 5-(4-methylbenzamido)-2-(phenylamino)thiazole-4-carboxamide]: the half-maximal inhibitory concentration (IC50) is 6 nM. In the case of `NC(=O)c1nc(Nc2ccccc2)sc1NC(=O)c1ccc(F)cc1` [Compound A2, 5-(4-fluorobenzamido)-2-(phenylamino)thiazole-4-carboxamide], the half-maximal inhibitory concentration (IC50) is 17 nM. `CC(=O)Nc1ccc(C(=O)Nc2sc(Nc3ccc(F)cc3)nc2C(N)=O)cc1` [Compound A4, 5-(4-acetamidobenzamido)-2-(4-fluorophenyl-amino)-thiazole-4-carboxamide]: the IC50 stood at 18 nM. In the case of `CC(=O)Nc1ccc(C(=O)Nc2sc(Nc3ccccc3C)nc2C(N)=O)cc1` [Compound A9, 2-(o-toluidino)-5-(4-acetamidobenzamido) thiazole-4-carboxamide] it was 18 nM; in that of `COc1ccc(Nc2nc(C(N)=O)c(NC(=O)c3ccc(NC(C)=O)cc3)s2)cc1` [Compound A11, 5-(4-acetamidobenzamido)-2-(4-methoxyphenyl-amino)thiazole-4-carboxamide], 14 nM; in that of `CC(=O)Nc1ccc(C(=O)Nc2sc(Nc3ccc(N)cc3)nc2C(N)=O)cc1` [Compound A19, 5-(4-acetamidobenzamido)-2-(4-aminophenyl-amino)thiazole-4-carboxamide], 24 nM. Take `CC(=O)Nc1ccc(C(=O)Nc2sc(Nc3cccnc3)nc2C(N)=O)cc1` [Compound A20, 5-(4-acetamidobenzamido)-2-(pyridin-3-ylamino) thiazole-4-carboxamide]: the IC50 worked out at 9 nM. In the case of `COc1ccc(Nc2nc(C(N)=O)c(NC(=O)c3ccc(N4CCN(C)CC4)cc3)s2)cc1` [Compound A22, 2-(4-methoxyphenylamino)-5-[4-(4-methyl-piperazin-1-yl)benzamido]thiazole-4-carboxamide] it was 15 nM; in that of `COc1ccc(Nc2nc(C(N)=O)c(NC(=O)c3ccc(NCCO)cc3)s2)cc1` [Compound A23, 5-[4-(2-hydroxyethylamino)benzamido]-2-(4-methoxyphenylamino)thiazole-4-carboxamide], 8 nM; in that of `COc1ccc(Nc2nc(C(N)=O)c(NC(=O)c3ccc(NCCN(C)C)cc3)s2)cc1` [Compound A24, 5-{4-[2-(dimethylamino)ethylamino]benzamido}-2-(4-methoxyphenylamino)thiazole-4-carboxamide], 11 nM. Regarding `COc1ccc(Nc2nc(C(N)=O)c(NC(=O)c3ccc(NCCN4CCOCC4)cc3)s2)cc1` [Compound A27, 2-(4-methoxyphenylamino)-5-[4-(2-morpholino-ethyl-amino)benzamido]thiazole-4-carboxamide], the IC50 stood at 9 nM. With `COc1ccc(Nc2nc(C(N)=O)c(NC(=O)c3ccc(NCCN4CCCC4)cc3)s2)cc1` [Compound A29, 2-(4-methoxyphenylamino)-5-{4-[2-(pyrrolidin-1-yl)ethylamino]benzamido}thiazole-4-carboxamide], the concentration for half-maximal inhibition (IC50) came out at 8 nM. As for `COCCNc1ccc(C(=O)Nc2sc(Nc3ccc(OC)cc3)nc2C(N)=O)cc1` [Compound A31, 5-[4-(2-methoxyethylamino)benzamido]-2-(4-methoxyphenylamino)thiazole-4-carboxamide], the IC50 came to 10 nM. In the case of `COc1ccc(Nc2nc(C(N)=O)c(NC(=O)c3ccc(NC(=O)CO)cc3)s2)cc1` [Compound A37, 5-[4-(2-hydroxyacetamido)benzamido]-2-(4-methoxyphenylamino)thiazole-4-carboxamide] it was 9 nM.

The values above are taken from US20100216795A1, “TNIK INHIBITOR AND THE USE” (priority 2008, published 2010).
